Experimental data published in patent US9204653B2, “5-fluoro pyrimidine derivatives” (DOW AGROSCIENCES LLC, priority 2008, dated 2015).
Where two headings read alike, the source gives them in different places.

System: Mycosphaerella graminicola; Anamorph: Septoria tritici; Bayer Code SEPTTR
Assay: Leaf blotch of wheat, foliar fungicide treatment, one day protectant (1DP) or three day curative (3DC)
Assay type: in vivo, Septoria tritici on wheat plants (variety Yuma)
Conditions: Zymoseptoria tritici; for pest or weed control at 50 ppm / pest or weed control at 200 ppm: % disease control rating
[1] = 24 h, one day protectant (1DP), 25 ppm (first 1DP column), percent control rating, read-out: SETTTR 1DP 25 ppm
[2] = 24 h, one day protectant (1DP), 25 ppm as printed (second 1DP column), percent control rating, read-out: SETTTR 1DP 25 ppm
[3] = 72 h, three day curative (3DC), 25 ppm, percent control rating, read-out: SEPTTR 3DC 25 ppm
[4] = 72 h, three day curative (3DC), percent control rating, read-out: SEPTTR 3DC 100 ppm
[5] = 24 h, one day protectant (1DP), 25 ppm, percent disease control rating, read-out: SETTTR 1DP 25 ppm
[6] = 24 h, one day protectant (1DP), percent disease control rating, read-out: SEPTTR 1DP 100 ppm
[7] = 72 h, three day curative (3DC), 25 ppm, percent disease control rating, read-out: SEPTTR 3DC 25 ppm
[8] = 72 h, three day curative (3DC), percent disease control rating, read-out: SEPTTR 3DC 100 ppm
[9] = 24 h, one day protectant (1DP), 25 ppm, rating of percent disease control, read-out: SETTTR 1DP 25 ppm
[10] = 24 h, one day protectant (1DP), rating of percent disease control, read-out: SEPTTR 1DP 100 ppm
[11] = 72 h, three day curative (3DC), 25 ppm, rating of percent disease control, read-out: SEPTTR 3DC 25 ppm
[12] = 72 h, three day curative (3DC), rating of percent disease control, read-out: SEPTTR 3DC 100 ppm
[13] = 24 h, one day protectant, 25 ppm, rating of percent disease control, read-out: SETTTR 1DP 25 ppm
[14] = 24 h, one day protectant, rating of percent disease control, read-out: SEPTTR 1DP 100 ppm
[15] = 72 h, three day curative, 25 ppm, rating of percent disease control, read-out: SEPTTR 3DC 25 ppm
[16] = 72 h, three day curative, rating of percent disease control, read-out: SEPTTR 3DC 100 ppm

Compound: Nc1nc(OCc2ccccn2)ncc1F [Compound 891]
- pest or weed control at 50 ppm (24 h, one day protectant): 76 to 100%
- pest or weed control at 200 ppm (24 h, one day protectant): 76 to 100%

Compound: COc1ncc(F)c(NNc2ccccc2Cl)n1 [Compound 1034]
- pest or weed control at 25 ppm [1]: 0 to 25%
- pest or weed control at 25 ppm [2]: 0 to 25%
- pest or weed control at 25 ppm [3]: 0 to 25%
- pest or weed control at 100 ppm [4]: 0 to 25%

Compound: Nc1nc(OCc2nc3ccccc3s2)ncc1F [Compound 104]
- pest or weed control at 25 ppm [5]: 76 to 100%
- pest or weed control at 100 ppm [6]: 76 to 100%
- pest or weed control at 25 ppm [7]: 76 to 100%
- pest or weed control at 100 ppm [8]: 76 to 100%

Compound: O=S(=O)(Nc1nc(OCc2ccc(F)cc2)ncc1F)c1ccccc1 [Compound 1005]
- pest or weed control at 25 ppm [1]: 0 to 25%
- pest or weed control at 25 ppm [2]: 0 to 25%
- pest or weed control at 25 ppm [3]: 0 to 25%
- pest or weed control at 100 ppm [4]: 0 to 25%

Compound: Cn1nc(COc2ncc(F)c(N)n2)c2ccccc21 [Compound 396]
- pest or weed control at 25 ppm [9]: 76 to 100%
- pest or weed control at 100 ppm [10]: 76 to 100%
- pest or weed control at 25 ppm [11]: 76 to 100%
- pest or weed control at 100 ppm [12]: 76 to 100%

Compound: COC(=O)Oc1ncc(F)c(/N=C/N(C)C)n1 [Compound 517]
- pest or weed control at 25 ppm [9]: 76 to 100%
- pest or weed control at 100 ppm [10]: 76 to 100%
- pest or weed control at 25 ppm [11]: 76 to 100%
- pest or weed control at 100 ppm [12]: 76 to 100%

Compound: C/C(=N\Nc1nc(OCc2ccc(C)cc2)ncc1F)c1ccc(C)o1 [Compound 718]
- pest or weed control at 25 ppm [13]: 26 to 50%
- pest or weed control at 100 ppm [14]: 76 to 100%
- pest or weed control at 25 ppm [15]: 26 to 50%
- pest or weed control at 100 ppm [16]: 26 to 50%

Compound: Fc1cnc(OCc2ccc(C(F)(F)F)cc2)nc1NCc1ccc(Cl)cc1 [Compound 811]
- pest or weed control at 50 ppm (24 h, one day protectant): 76 to 100%
- pest or weed control at 200 ppm (24 h, one day protectant): 76 to 100%

Compound: Fc1ccc(COc2ncc(F)c(/N=N/c3ccccc3Cl)n2)cc1 [Compound 1014]
- pest or weed control at 25 ppm [1]: 0 to 25%
- pest or weed control at 25 ppm [2]: 0 to 25%
- pest or weed control at 25 ppm [3]: 0 to 25%
- pest or weed control at 100 ppm [4]: 76 to 100%

Compound: COc1cccc(COc2ncc(F)c(NOC3CCCCO3)n2)c1 (stereo not shown) [Compound 652]
- pest or weed control at 25 ppm [13]: 0 to 25%
- pest or weed control at 100 ppm [14]: 51 to 75%
- pest or weed control at 25 ppm [15]: 0 to 25%
- pest or weed control at 100 ppm [16]: 76 to 100%

Compound: CC(C)(C)c1ccc(COc2ncc(F)c(N)n2)cc1 [Compound 696]
- pest or weed control at 25 ppm [13]: 76 to 100%
- pest or weed control at 100 ppm [14]: 76 to 100%
- pest or weed control at 25 ppm [15]: 51 to 75%
- pest or weed control at 100 ppm [16]: 76 to 100%

Compound: Cc1cccc(Oc2ccc(COc3ncc(F)c(N)n3)cc2)c1 [Compound 716]
- pest or weed control at 25 ppm [13]: 76 to 100%
- pest or weed control at 100 ppm [14]: 76 to 100%
- pest or weed control at 25 ppm [15]: 76 to 100%
- pest or weed control at 100 ppm [16]: 76 to 100%

Compound: Cc1ccc(COc2ncc(F)c(NC(=O)NCc3ccccc3F)n2)cc1 [Compound 398]
- pest or weed control at 25 ppm [9]: 0 to 25%
- pest or weed control at 100 ppm [10]: 0 to 25%
- pest or weed control at 25 ppm [11]: 0 to 25%
- pest or weed control at 100 ppm [12]: 26 to 50%

Compound: COc1cccc(COc2ncc(F)c(/N=C/N3CCOCC3)n2)c1 [Compound 704]
- pest or weed control at 25 ppm [13]: 76 to 100%
- pest or weed control at 100 ppm [14]: 76 to 100%
- pest or weed control at 25 ppm [15]: 76 to 100%
- pest or weed control at 100 ppm [16]: 76 to 100%

Compound: CN(C)/C=N/c1nc(OCc2cccc(F)c2)ncc1F [Compound 494]
- pest or weed control at 25 ppm [9]: 76 to 100%
- pest or weed control at 100 ppm [10]: 76 to 100%
- pest or weed control at 25 ppm [11]: 76 to 100%
- pest or weed control at 100 ppm [12]: 76 to 100%

Compound: O=C(Nc1nc(O)ncc1F)NC1CCCC1 [Compound 973]
- pest or weed control at 25 ppm [1]: 26 to 50%
- pest or weed control at 25 ppm [2]: 26 to 50%
- pest or weed control at 25 ppm [3]: 76 to 100%
- pest or weed control at 100 ppm [4]: 51 to 75%

Compound: Cc1ccc(NC(=O)Nc2nc(O)ncc2F)cc1 [Compound 968]
- pest or weed control at 25 ppm [1]: 51 to 75%
- pest or weed control at 25 ppm [2]: 51 to 75%
- pest or weed control at 25 ppm [3]: 51 to 75%
- pest or weed control at 100 ppm [4]: 51 to 75%

Compound: Nc1nc(OCCc2cccc(C(F)(F)F)c2)ncc1F [Compound 129]
- pest or weed control at 25 ppm [5]: 26 to 50%
- pest or weed control at 100 ppm [6]: 76 to 100%
- pest or weed control at 25 ppm [7]: 76 to 100%
- pest or weed control at 100 ppm [8]: 76 to 100%

Compound: CC(C)=NOc1ncc(F)c(N)n1 [Compound 997]
- pest or weed control at 25 ppm [1]: 76 to 100%
- pest or weed control at 25 ppm [2]: 76 to 100%
- pest or weed control at 25 ppm [3]: 76 to 100%
- pest or weed control at 100 ppm [4]: 76 to 100%

Compound: CN(Oc1ncc(F)c(N)n1)C(=O)OC(C)(C)C [Compound 50, O-(4-Amino-5-fluoropyrimidin-2-yl)-t-butyl N-methyl-N-hydroxycarbamate]
- pest or weed control at 25 ppm [5]: 26 to 50%
- pest or weed control at 100 ppm [6]: 76 to 100%
- pest or weed control at 25 ppm [7]: 26 to 50%
- pest or weed control at 100 ppm [8]: 76 to 100%
